{"source": "patent US20260144883A1", "about": "“ANTI-TROP2/EGFR ANTIBODIES AND USES THEREOF” (XADCERA BIOPHARMACEUTICAL (SUZHOU) CO., LTD., priority 2022, published 2026)", "test_in_all_cases": "In vitro killing activity (CellCounting-Lite 2.0, 7 days)", "type_in_all_cases": "cell-based", "key": {"HCC827 cells": {"test_system": "HCC827 cells", "conditions": "Homo sapiens, 168 h"}, "A431 cells": {"test_system": "A431 cells", "conditions": "Homo sapiens, A-431, 168 h"}, "Panc 02.03 cells": {"test_system": "Panc 02.03 cells", "conditions": "Homo sapiens, Panc 02.03, 168 h"}, "NCI-H292 cells": {"test_system": "NCI-H292 cells", "conditions": "Homo sapiens, 168 h"}}, "data": [{"smiles": "CC[C@@]1(O)C(=O)OCc2c1cc1n(c2=O)Cc2c-1nc1ccc(N)c3c1c2CCO3", "note": "[CPT2, (S)-4-amino-9-ethyl-9-hydroxy-1,9,12,15-tetrahydro-13H-pyrano[4,3,2-de]pyrano[3′,4′:6,7]indolizino[1,2-b]quinoline-10,13(2H)-dione]", "values": [{"measurement": "IC50", "setting": "HCC827 cells", "result": 1.69, "unit": "nM"}, {"measurement": "IC50", "setting": "A431 cells", "result": 1.38, "unit": "nM"}, {"measurement": "IC50", "setting": "Panc 02.03 cells", "result": 0.981, "unit": "nM"}, {"measurement": "IC50", "setting": "NCI-H292 cells", "result": 0.728, "unit": "nM"}]}]}
